Here are results for 53 molecules from US6716828B1, “Compounds, methods and pharmaceutical compositions for treating cellular damage, such as neural or cardiovascular tissue damage” (Guilford Pharmaceuticals, Inc., priority 1999, dated 2004).

Some results are limits rather than exact numbers.

In the first series the test system is rabbits.
Test: not given
The note with it: 1 mg/kg; cited from earlier work.
`Oc1cccc2c(O)nccc12` [1,5-dihydroxyisoquinoline]: the “reduction in infarct size” value was 38-48%.

Staying with this series, now noted: single injection 10 mg/kg, one minute before occlusion or one minute before reperfusion; cited from earlier work.
In the case of `NC(=O)c1cccc(N)c1` [3-amino-benzamide], the “reduction in infarct size in the heart” value is reported as 32-42%.

For the next series, the system named is human fibroblast cells lines (either W138 or BJ cells). In words: Extending or increasing proliferative capacity and lifespan of cells. The following applies: 10 μM. In kind it is cell-based. As to the method:
At the time of subdivision, the media is aspirated, and the cells rinsed with phosphate buffer saline (PBS) and then trypsinzied. The cells are counted with a Coulter counter and plated at a density of 10^5 cells per cm^2 in 6-well tissue culture plates in DMEM/199 medium supplemented with 10% bovine calf serum and varying amounts (0.10 μM, and 1 mM; from a 100× stock solution in DMEM/M199 medium) of a PARP inhibitor. This process is repeated every 7 days until the cells appear to stop dividing. The untreated (control) cells reach senescence and stop dividing after about 40 days a culture. […] The cells treated with 1 mM 3-AB will still divide after 60 days in culture.
As to `NC(=O)c1cccc(N)c1` [3-amino-benzamide], the “effect on lifespan and proliferative capacity of the cells” value (shortened to “effect”) was “little or no effect”.

Staying with this series, now noted: 100 μM.
In the case of `NC(=O)c1cccc(N)c1` [3-amino-benzamide], the “effect” value is reported as “lengthen the lifespan of the cells”.

The series is the same for the next values; noted with them: 1 mM.
Take `NC(=O)c1cccc(N)c1` [3-amino-benzamide]: the “effect” value is “dramatically increases the lifespan and proliferative capacity of the cells”.

Still in this series, the particulars now being: 1 mM; untreated cells stop dividing after about 40 days.
`NC(=O)c1cccc(N)c1` [3-amino-benzamide]: the “time in culture at which cells still divide” value is recorded as greater than 60 days.

Tested on in a further series: not given
Test: not given
Details: not given
In general, melting point refers to the temperature, or range, at which the solid turns liquid. For the molecule `COP(=O)(O)Cc1ccc2c(c1)-c1n[nH]c(=O)c3cccc(c13)O2`, the melting point is 196 to 201 °C.

A further series deals with T1, purified recombinant human PARP (Homo sapiens, UniProt P09874).
T1 construct: purchased Trevigan (Gaithersburg, Md.)
T1 sequence (P09874 whole entry): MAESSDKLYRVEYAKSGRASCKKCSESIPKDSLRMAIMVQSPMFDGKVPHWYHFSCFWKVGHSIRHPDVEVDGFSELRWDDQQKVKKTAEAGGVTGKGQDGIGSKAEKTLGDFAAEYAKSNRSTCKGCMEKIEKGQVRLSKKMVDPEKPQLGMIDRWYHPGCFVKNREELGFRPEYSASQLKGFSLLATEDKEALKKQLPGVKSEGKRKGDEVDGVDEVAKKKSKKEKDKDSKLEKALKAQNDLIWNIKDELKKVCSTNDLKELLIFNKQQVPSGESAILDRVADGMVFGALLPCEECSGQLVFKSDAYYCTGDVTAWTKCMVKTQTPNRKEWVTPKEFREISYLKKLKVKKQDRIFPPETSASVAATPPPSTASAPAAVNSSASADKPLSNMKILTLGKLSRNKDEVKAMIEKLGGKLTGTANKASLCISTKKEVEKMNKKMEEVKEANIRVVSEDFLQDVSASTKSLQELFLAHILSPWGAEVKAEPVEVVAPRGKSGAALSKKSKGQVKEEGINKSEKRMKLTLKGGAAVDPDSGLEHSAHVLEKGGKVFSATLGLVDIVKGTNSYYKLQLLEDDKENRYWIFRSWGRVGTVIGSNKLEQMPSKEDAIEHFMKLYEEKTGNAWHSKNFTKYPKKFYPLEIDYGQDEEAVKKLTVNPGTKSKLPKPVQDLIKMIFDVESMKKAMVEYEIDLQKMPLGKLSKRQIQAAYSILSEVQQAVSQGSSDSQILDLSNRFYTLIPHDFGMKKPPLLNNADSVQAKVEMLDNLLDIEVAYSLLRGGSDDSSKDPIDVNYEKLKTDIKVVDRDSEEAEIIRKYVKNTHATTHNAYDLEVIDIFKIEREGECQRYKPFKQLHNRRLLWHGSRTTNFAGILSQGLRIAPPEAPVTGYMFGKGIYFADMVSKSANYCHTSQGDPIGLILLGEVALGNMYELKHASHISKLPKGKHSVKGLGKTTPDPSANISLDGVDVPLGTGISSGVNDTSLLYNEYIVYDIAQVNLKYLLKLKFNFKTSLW
Description: PARP enzyme assay (IC50), [3H]NAD incorporation. In kind it is biochemical. The following applies: approximate IC50 values. As to the method:
A convenient method to determine IC50 of a PARP inhibitor compound is PARP assay using purified recombinant human PARP from Trevigan (Gaithersburg, Md.), as follows: The PARP enzyme assay is set up on ice in a volume of 100 microliters consisting of 100 mM Tris-HCl (pH 8.0). 1 mM MgCl2, 28 mM KCl, 28 mM NaCl, 0.1 mg/ml of DNase I activated herring sperm DNA (Sigma, Mo.), 3.0 micromolar [3H]nicotinamide adenine dinucleotide (470 mci/mmole), 7 micrograms/ml PARP enzyme, and various concentrations of the compounds to be tested. The reaction is initiated by incubating the mixture at 25° C. After 15 minutes of incubation, the reaction is terminated by adding 500 microliters of ice code 20% (w/v) trichloracetic acid. The precipitate formed is transferred onto a glass fiber filter (Packard Unifilter-GF/B) and washed three items with ethanol. After the filter is dried, the radioactivity is determined by scintillation counting.
Using the PARP assay described above, approximate IC50 values were obtained for the following compounds: […]
For orientation: IC50 means the concentration needed to halve the response being measured. Turning to `CN(C)CCN(C)Cc1ccc2c(c1)-c1n[nH]c(=O)c3cccc(c13)O2`, the IC50 came to 85 nM.
The same measure, in the same setting: the figure for `O=c1[nH]nc2c3c(cccc13)-c1ccc(S(=O)(=O)NCCN3CCOCC3)cc1-2` is 340 nM; for `O=C(O)C(O)C(O)C(=O)Nc1ccc2c(c1)-c1n[nH]c(=O)c3cccc(c13)O2` (stereo not drawn) it is 23 nM.
The same measure, in the same setting: for `Cc1cc2c(c(S(=O)(=O)O)c1)Oc1cccc3c(=O)[nH]nc-2c13` the value was 2030 nM; for `O=c1[nH]nc2c3c(cccc13)Oc1ccc(COc3cccnc3)cc1-2`, 54 nM; for `O=c1[nH]nc2c3c(cccc13)Oc1ccc(S(=O)(=O)NCCN3CCCCC3)cc1-2`, 192 nM.
On to `CN1CCN(S(=O)(=O)c2ccc3c(c2)C2CNC(=O)c4cccc(c42)O3)CC1` (stereo not drawn), for which the IC50 was 233 nM.
On the same count and under the same terms, the figure for `O=c1[nH]nc2c3c(cccc13)Oc1ccc(NS(=O)(=O)O)cc1-2` is 25 nM; for `O=C(O)CCC(=O)Nc1ccc2c(c1)-c1n[nH]c(=O)c3cccc-2c13` it is 29 nM; for `CCOP(=O)(Nc1ccc2c(c1)-c1n[nH]c(=O)c3cccc(c13)O2)OCC` it is 199 nM.
Regarding `CC(=O)OC(C(=O)O)C(OC(C)=O)C(=O)Nc1ccc2c(c1)-c1n[nH]c(=O)c3cccc-2c13` (stereo not drawn), the IC50 worked out at 59 nM.
On the same count and under the same terms, for `CCCCN(C)Cc1ccc2c(c1)-c1n[nH]c(=O)c3cccc(c13)O2` the value was 120 nM; for `NNC(=O)c1cc(OCc2ccc3c(c2)-c2n[nH]c(=O)c4cccc(c24)O3)cc(C(=O)NN)c1`, 40 nM.
As to `CS(=O)(=O)Nc1ccc2c(c1)-c1n[nH]c(=O)c3cccc(c13)O2`, the IC50 was found to be 198 nM.
Still for that read-out and setting: for `O=c1[nH]nc2c3c(cccc13)Oc1ccc(S(=O)(=O)O)cc1-2` the value was 52 nM.
As for `O=C(O)c1cccc(S(=O)(=O)Nc2ccc3c(c2)-c2n[nH]c(=O)c4cccc-3c24)c1`, the IC50 was 52 nM.
Take `O=C1NCC2c3cc(S(=O)(=O)O)ccc3Oc3cccc1c32` (stereo not drawn): the IC50 amounted to 161 nM.
Regarding `O=c1[nH]nc2c3c(cccc13)Oc1ccc(S(=O)(=O)NC3CN4CCC3CC4)cc1-2` (stereo not drawn), the IC50 stood at 37 nM.
Same read-out and setting: for `CC(=O)OC(C(=O)O)C(OC(C)=O)C(=O)Nc1ccc2c(c1)-c1n[nH]c(=O)c3cccc(c13)O2` (stereo not drawn) the value was 18 nM; for `O=c1[nH]nc2c3c(cccc13)Oc1ccc(S(=O)(=O)NCCN(CCO)CCO)cc1-2`, 158 nM; for `CCN(CC)CCNS(=O)(=O)c1ccc2c(c1)-c1n[nH]c(=O)c3cccc-2c13`, 390 nM.
Still for that read-out and setting: for `O=C1NCC2c3cc(S(=O)(=O)NN4CCOCC4)ccc3Oc3cccc1c32` (stereo not drawn) the value was 144 nM; for `O=c1[nH]nc2c3c(cccc13)Oc1c-2ccc2ccccc12`, 40000 nM; for `NNC(=O)c1ccc(OCc2ccc3c(c2)-c2n[nH]c(=O)c4cccc(c24)O3)cc1`, 35 nM.
Same read-out and setting: for `O=c1[nH]nc2c3c(cccc13)Oc1ccc(S(=O)(=O)NCCN3CCOCC3)cc1-2` the value was 81 nM; for `O=c1[nH]nc2c3c(cccc13)Oc1ccc(S(=O)(=O)NCCc3ccncc3)cc1-2`, 89 nM; for `NCCSCc1ccc2c(c1)-c1n[nH]c(=O)c3cccc(c13)O2`, 28 nM.
Regarding `O=c1[nH]nc2c3c(cccc13)Oc1cc3ccccc3cc1-2`, the IC50 came to 139 nM.
Still for that read-out and setting: the figure for `O=C(O)CCC(=O)Nc1ccc2c(c1)-c1n[nH]c(=O)c3cccc(c13)O2` is 21 nM.
As for `Cc1cc2c(c(-n3nc4ccccc4n3)c1)Oc1cccc3c(=O)[nH]nc-2c13`, the IC50 came out at 25000 nM.
For the molecule `O=C1NCC2c3cc(S(=O)(=O)NCCN4CCCCC4)ccc3Oc3cccc1c32` (stereo not drawn), the IC50 was 361 nM.
As for `O=C(O)[C@@H]1CCCN1S(=O)(=O)c1ccc2c(c1)-c1n[nH]c(=O)c3cccc(c13)O2`, the IC50 is 58 nM.
With `O=C1NN=C2C3C=CC=CC3[S+]([O-])C3=CC=CC1C32` (stereo not drawn), the IC50 is 340 nM.
Consider `O=c1[nH]nc2c3c(cccc13)Oc1ccc(CN3CCN(c4ccccc4)CC3)cc1-2`, for which the half-inhibitory concentration (IC50) was found to be 62 nM.
The same measure, in the same setting: for `CN1CCN(S(=O)(=O)c2ccc3c(c2)-c2n[nH]c(=O)c4cccc(c24)O3)CC1` the value was 208 nM; for `O=c1[nH]nc2c3c(cccc13)Oc1ccc(CN3CCCCC3)cc1-2`, 72 nM; for `O=c1[nH]nc2c3c(cccc13)Oc1ccc(CN3CCOCC3)cc1-2`, 75 nM.
For `O=c1[nH]nc2c3c(cccc13)Oc1ccc(CSc3ccncc3)cc1-2`, the IC50 came to 17 nM.
As to `COC(=O)C1CCCCN1S(=O)(=O)c1ccc2c(c1)C1CNC(=O)c3cccc(c31)O2` (stereo not drawn), the IC50 is 595 nM.
On the same count and under the same terms, the figure for `CC(=O)Nc1ccc2c(c1)-c1n[nH]c(=O)c3cccc-2c13` is 69 nM; for `N#CCc1ccc2c(c1)-c1n[nH]c(=O)c3cccc(c13)O2` it is 25 nM; for `O=c1[nH]nc2c3c(cccc13)Oc1ccc(CN3CCN(Cc4ccccc4)CC3)cc1-2` it is 44 nM.
Take `CC(=O)Nc1ccc2c(c1)-c1n[nH]c(=O)c3cccc(c13)O2`: the 50% inhibitory concentration (IC50) came to 36 nM.
Consider `NCNCc1ccc2c(c1)-c1n[nH]c(=O)c3cccc(c13)O2`, for which the IC50 is 45 nM.
As for `CN(C)Cc1ccc2c(c1)-c1n[nH]c(=O)c3cccc(c13)O2`, the IC50 came out at 17 nM.
With `O=c1[nH]nc2c3c(cccc13)Oc1ccc(CN3CCN(c4ccccn4)CC3)cc1-2`, the half-inhibitory concentration (IC50) worked out at 77 nM.
Take `O=c1[nH]nc2c3c(cccc13)Oc1ccc(S(=O)(=O)NCCCN3CCOCC3)cc1-2`: the half-maximal inhibitory concentration (IC50) was 185 nM.
On to `O=C(O)C(O)C(O)C(=O)Nc1ccc2c(c1)-c1n[nH]c(=O)c3cccc-2c13` (stereo not drawn), for which the IC50 was 65 nM.
As to `O=c1[nH]nc2c3c(cccc13)Oc1ccc(-c3nc4ccccc4nc3-c3ccccc3)cc1-2`, the IC50 came to 100 nM.
With `CN(C)c1cccc(OCc2ccc3c(c2)-c2n[nH]c(=O)c4cccc(c24)O3)c1`, the IC50 is 128 nM.
